Assay results published in PubChem BioAssay (NCI).
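Five compound concentrations were applied to cells in 96-well plates for 48 hours; endpoints were derived by simple linear interpolation of the resulting dose-response curve. GI50 is the concentration that inhibits growth by half. The concentration for full growth arrest is given as TGI.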

Key:
Assay in all cases: NCI-60 cell line screen, 48 h
[1] = tested on: 786-0 renal
[2] = tested on: A498 renal
[3] = tested on: A549 NSCLC
[4] = tested on: ACHN renal
[5] = tested on: BT-549 breast
[6] = tested on: CAKI-1 renal
[7] = tested on: CCRF-CEM leukemia
[8] = tested on: COLO 205 colon
[9] = tested on: DU-145 prostate
[10] = tested on: EKVX NSCLC
[11] = tested on: HCC-2998 colon
[12] = tested on: HCT-116 colon
[13] = tested on: HCT-15 colon
[14] = tested on: HL-60(TB) leukemia
[15] = tested on: HOP-62 NSCLC
[16] = tested on: HOP-92 NSCLC
[17] = tested on: HS 578T breast
[18] = tested on: HT29 colon
[19] = tested on: IGROV1 ovarian
[20] = tested on: K-562 leukemia
[21] = tested on: KM12 colon
[22] = tested on: LOX IMVI melanoma
[23] = tested on: M14 melanoma
[24] = tested on: MALME-3M melanoma
[25] = tested on: MCF7 breast
[26] = tested on: MDA-MB-231 breast
[27] = tested on: MDA-MB-435
[28] = tested on: MDA-MB-468 breast
[29] = tested on: MOLT-4 leukemia

CCOC(=O)C1=C(N)N(c2ccccc2)C2=C(C(=O)CC(C)(C)C2)C1c1ccc(Cl)cc1Cl (stereo not drawn)
GI50 [1]: 42.4 µM
TGI [1]: > 100 µM
GI50 [2]: 45.4 µM
TGI [2]: > 100 µM
GI50 [3]: 18.8 µM
TGI [3]: > 100 µM
GI50 [4]: 18.3 µM
TGI [4]: > 100 µM
GI50 [5]: 45.8 µM
TGI [5]: > 100 µM
GI50 [6]: 6.82 µM
TGI [6]: > 100 µM
GI50 [7]: 31 µM
TGI [7]: > 100 µM
GI50 [8]: 20.6 µM
TGI [8]: 91.3 µM
GI50 [9]: 67.1 µM
TGI [9]: > 100 µM
GI50 [10]: 26.2 µM
TGI [10]: > 100 µM
GI50 [11]: 27.7 µM
TGI [11]: > 100 µM
GI50 [12]: 7.89 µM
TGI [12]: > 100 µM
GI50 [13]: 15.2 µM
TGI [13]: > 100 µM
GI50 [14]: 5.95 µM
TGI [14]: > 100 µM
GI50 [15]: 48.8 µM
TGI [15]: > 100 µM
GI50 [16]: 3.89 µM
TGI [16]: 65.5 µM
GI50 [17]: 76.8 µM
TGI [17]: > 100 µM
GI50 [18]: 19.8 µM
TGI [18]: > 100 µM
GI50 [19]: 79.7 µM
TGI [19]: > 100 µM
GI50 [20]: 7.23 µM
TGI [20]: > 100 µM
GI50 [21]: 23.6 µM
TGI [21]: > 100 µM
GI50 [22]: 32.4 µM
TGI [22]: > 100 µM
GI50 [23]: 34.8 µM
TGI [23]: > 100 µM
GI50 [24]: 29.3 µM
TGI [24]: > 100 µM
GI50 [25]: 17.7 µM
TGI [25]: > 100 µM
GI50 [26]: 33.5 µM
TGI [26]: > 100 µM
GI50 [27]: 32.1 µM
TGI [27]: > 100 µM
GI50 [28]: 6.83 µM
TGI [28]: 53.8 µM
GI50 [29]: 9.56 µM
TGI [29]: > 100 µM
